Data published in patent US20090317452A1, “Transdermal patch” (Sekisui Chemical Co. td., priority 2006, published 2009).

Experiments:
[1] = Residual rate of the active substance in monomer solution (HPLC); type: physicochemical; details: for Residual Rate (% by weight) after 7 Days: 25° C.
[2] = Solvency of the active substance in monomers (visual inspection); type: physicochemical; set-up: key: Excellent: The active substance was not found to have been precipitated in the solution of active substance both immediately after the preparation and after the preservation for 7 days.; Good: The active substance was found to have been precipitated in the solution of active substance immediately after the preparation, but the active substance was not found to have been precipitated in the solution of active substance after the preservation for 7 days.; Poor: The active substance was found to have been precipitated in the solution of active substance both immediately after the preparation and after the preservation for 7 days; details: 25° C., 7 days
[3] = in Butyl Acrylate, N.D. = equal to or less than the HPLC detection limit
[4] = in Ethyl Acrylate, N.D. = equal to or less than the HPLC detection limit
[5] = 3 parts active substance in 100 parts 1-Vinyl-2-Pyrrolidone
[6] = 3 parts active substance in 100 parts 2-Ethylhexyl Acrylate
[7] = 3 parts active substance in 100 parts 2-Ethylhexyl Methacrylate
[8] = 3 parts active substance in 100 parts Acrylic Acid
[9] = 3 parts active substance in 100 parts Butyl Acrylate
[10] = 3 parts active substance in 100 parts Butyl Methacrylate
[11] = 3 parts active substance in 100 parts Dodecyl Methacrylate
[12] = 3 parts active substance in 100 parts Ethyl Acrylate

Structure (SMILES) | Residual Rate (% by weight) Immediately after Preparation ([1]; in 1-Vinyl-2-Pyrrolidone) | Residual Rate (% by weight) after 7 Days ([1]; in 1-Vinyl-2-Pyrrolidone) | Residual Rate (% by weight) Immediately after Preparation ([1]; in 2-Ethylhexyl Acrylate) | Residual Rate (% by weight) after 7 Days ([1]; in 2-Ethylhexyl Acrylate) | Residual Rate (% by weight) Immediately after Preparation ([1]; in 2-Ethylhexyl Methacrylate) | Residual Rate (% by weight) after 7 Days ([1]; in 2-Ethylhexyl Methacrylate) | Residual Rate (% by weight) Immediately after Preparation ([1]; in Acrylic Acid) | Residual Rate (% by weight) after 7 Days ([1]; in Acrylic Acid) | Residual Rate (% by weight) Immediately after Preparation ([1]; in Butyl Acrylate) | Residual Rate (% by weight) after 7 Days [1, 3] | Residual Rate (% by weight) Immediately after Preparation ([1]; in Butyl Methacrylate) | Residual Rate (% by weight) after 7 Days ([1]; in Butyl Methacrylate) | Residual Rate (% by weight) Immediately after Preparation ([1]; in Dodecyl Methacrylate) | Residual Rate (% by weight) after 7 Days ([1]; in Dodecyl Methacrylate) | Residual Rate (% by weight) after 7 Days ([1]; in Ethyl Acrylate) | Residual Rate (% by weight) Immediately after Preparation [1, 4] | Solvency of the active substance [2, 5] | Solvency of the active substance [2, 6] | Solvency of the active substance [2, 7] | Solvency of the active substance [2, 8] | also measured
O=[N+]([O-])O[C@H]1CO[C@H]2[C@@H]1OC[C@H]2O[N+](=O)[O-] [ISDN, isosorbide dinitrate] | 100 % by weight | 100 % by weight | 100 % by weight | 100 % by weight | 100 % by weight | 99 % by weight | 100 % by weight | 100 % by weight | 100 % by weight | 100 % by weight | 100 % by weight | 100 % by weight | 100 % by weight | 100 % by weight | 100 % by weight | 100 % by weight | Excellent | Excellent | Excellent | Excellent | Solvency of the active substance [2, 9]: Excellent; Solvency of the active substance [2, 10]: Excellent; Solvency of the active substance [2, 11]: Excellent; Solvency of the active substance [2, 12]: Excellent
CC(C)(C)NCC(O)c1ccccc1Cl (stereo not drawn) [TB, tulobuterol] | 100 % by weight | 100 % by weight | 100 % by weight | 88 % by weight | 100 % by weight | 100 % by weight | 100 % by weight | 96 % by weight | 100 % by weight | 81 % by weight | 100 % by weight | 100 % by weight | 100 % by weight | 100 % by weight | 70 % by weight | 100 % by weight | Excellent | Excellent | Excellent | Excellent | Solvency of the active substance [2, 9]: Excellent; Solvency of the active substance [2, 10]: Excellent; Solvency of the active substance [2, 11]: Good; Solvency of the active substance [2, 12]: Excellent
